Experimental data reported in US11999752B2, “Vinyl imidazole compounds as inhibitors of KRAS” (Incyte Corporation, priority 2020, dated 2024).
Read-outs that look alike come from different tables or passages of the source.

What was measured:
KRAS G12C = KRAS G12C (Homo sapiens, UniProt P01116, G12C); experiment: GDP-GTP exchange assay (fluorescence based guanine nucleotide exchange, bodipy-GDP for GppNHp, SOS1); type: biochemical; details: bodipy-loaded KRAS G12C 2.5 nM, GppNHp 500 uM, SOS1 150 nM; 2 hours pre-incubation with inhibitor; read-out: G12C_exchange IC50
Description: Example A. GDP-GTP Exchange Assay.
The inhibitor potency of the exemplified compounds was determined in a fluorescence based guanine nucleotide exchange assay, which measures the exchange of bodipy-GDP (fluorescently labeled GDP) for GppNHp (Non-hydrolyzable GTP analog) to generate the active state of KRAS in the presence of SOS1 (guanine nucleotide exchange factor). Inhibitors were serially diluted in DMSO and a volume of 0.1 μL was transferred to the wells of a black low volume 384-well plate. 5 μL/well volume of bodipy-loaded KRAS G12C diluted to 5 nM in assay buffer (25 mM Hepes pH 7.5, 50 mM NaCl, 10 mM MgCl2 and 0.01% Brij-35) was added to the plate and pre-incubated with inhibitor for 2 hours at ambient temperature. Appropriate controls (enzyme with no inhibitor or with a G12C inhibitor (AMG -510)) were included on the plate. The exchange was initiated by the addition of a 5 μL/well volume containing 1 mM GppNHp and 300 nM SOS1 in assay buffer. The 10 μL/well reaction concentration of the bodipy-loaded KRAS G12C, GppNHp, and SOS1 were 2.5 nM, 500 uM, and 150 nM, respectively. The reaction plates were incubated at ambient temperature for 2 hours, a time estimated for complete GDP-GTP exchange in the absence of inhibitor. For the KRAS G12D and G12V mutants, similar guanine nucleotide exchange assays were used with 2.5nM as final concentration for the bodipy loaded KRAS proteins and with 4 hours and 3 hours incubation after adding GppNHp-SOS1 mixture for G12D and G12V respectively. A cyclic peptide described to selectively bind G12D mutant (Sakamoto et al., BBRC 484.3 (2017), 605-611) or internal compounds with confirmed binding were used as positive controls in the assay plates. Fluorescence intensities were measured on a PheraStar plate reader instrument (BMG Labtech) with excitation at 485 nm and emission at 520 nm.
Either GraphPad prism or XLfit was used to analyze the data. The IC50 values were derived by fitting the data to a four parameter logistic equation producing a sigmoidal dose -response curve with a variable Hill coefficient. Y=Bottom+(Top−Bottom)/(1+10^((LogIC50−X)*Hill slope)); XLfit equation: Y=(A+((B−A)/(1+((X/C)^D)))) where X is the logarithm of inhibitor concentration and Y is the response. Prism equation: […]

[1] = tested on: MIA PaCa-2 (KRAS G12C) cells; experiment: Cellular pERK HTRF assay; type: cell-based, human; details: KRAS_G12C pERK assay, cells incubated with compounds 4 hours, read-out: G12C_pERK IC50
Description: Example C: Cellular pERK HTRF Assay
MIA PaCa-2 (KRAS G12C; ATCC® CRL-1420), A427 (KRAS G12D; ATCC® HTB53), HPAF-II (KRAS G12D; ATCC® CRL-1997) and NCI-H838 (KRAS WT; ATCC® CRL-5844) cells are purchased from ATCC and maintained in RPMI 1640 media supplemented with 10% FBS (Gibco/Life Technologies). The cells are plated at 5000 cells per well (8 uL) into Greiner 384-well low volume, flat-bottom, tissue culture treated white plates and incubated overnight at 37° C., 5% CO2. The next morning, test compound stock solutions are diluted in media at 3× the final concentration, and 4 uL are added to the cells. The plate is mixed by gentle rotation for 30 seconds (250rpm) at room temperature. The cells are incubated with the KRAS G12C and G12D compounds for 4 hours or 2 hours respectively at 37° C., 5% CO2.
4 uL of 4× lysis buffer with blocking reagent (1:25) (Cisbio) are added to each well and plates are rotated gently (300 rpm) for 30 minutes at room temperature. 4 uL per well of Cisbio anti Phospho-ERK 1/2 d2 is mixed with anti Phospho-ERK 1/2 Cryl)tate (1:1) are added to each well, mixed by rotation and incubated overnight in the dark at room temperature. Plates are read on the Pherastar plate reader at 665 nm and 620 nm wavelengths. IC50 determination is performed by fitting the curve of inhibitor percent inhibition versus the log of the inhibitor concentration using the GraphPad Prism 7 software.

Question: What does the source list for `C=Cc1ncc2n1CCN(c1nc(=O)n(-c3c(C)ccnc3C(C)C)c3nc(-c4c(O)cccc4F)c(F)cc13)C2` (single isomer, unassigned) [Example 2]?
Answer: IC50 (KRAS G12C): 0.1 to 1 µM; IC50 [1]: 5 to 10 µM

Question: `C=Cc1nc(CN2CC(C(F)(F)F)C2)c2n1CCN(c1nc(=O)n(-c3c(C)ccnc3C(C)C)c3nc(-c4c(O)cccc4F)c(F)cc13)C2` [Example 9] was tested. Which IC50 (KRAS G12C) did it give?
Answer: 1 to 5 µM

Question: For `C=Cc1ncc2n1CCN(c1nc(=O)n(CCOC)c3nc(-c4c(O)cccc4F)c(F)cc13)C2` [Example 5], which IC50 (KRAS G12C) is on record?
Answer: 1 to 5 µM

Question: What does the source list for `C=Cc1ncc2n1CCN(c1nc(OCCN(C)C)nc3c(F)c(-c4cc(O)cc5ccccc45)c(Cl)cc13)C2` [Example 14, 4-(6-chloro-2-(2-(dimethylamino)ethoxy)-8-fluoro-4-(3-vinyl-5,6-dihydroimidazo[1,5-a]pyrazin-7(8H)-yl)quinazolin-7-yl)naphthalen-2-ol]?
Answer: IC50 (KRAS G12C): 0.1 to 1 µM; IC50 ([1]; Homo sapiens, MIA PaCa-2): 1 to 5 µM

Question: Which IC50 (KRAS G12C) does the source give for `C=Cc1ncc2n1CCN(c1nc(OC3CCCN(C)C3)nc3c(F)c(-c4cc(O)cc5ccccc45)c(Cl)cc13)C2` (racemic) [Example 18, 4-(6-chloro-8-fluoro-2-((1-methylpiperidin-3-yl)oxy)-4-(3-vinyl-5,6-dihydro-imidazo[1,5-a]pyrazin-7(8H)-yl)quinazolin-7-yl)naphthalen-2-ol] here?
Answer: 0.1 to 1 µM

Question: What about the IC50 ([1]; Homo sapiens, MIA PaCa-2) of the same compound?
Answer: 5 to 10 µM

Question: With `C=Cc1ncc2n1CCN(c1nc(OCCN3CCOCC3)nc3c(F)c(-c4cc(O)cc5ccccc45)c(Cl)cc13)C2` [Example 16, 4-(6-chloro-8-fluoro-2-(2-morpholinoethoxy)-4-(3-vinyl-5,6-dihydroimidazo-[1,5-a]pyrazin-7(8H)-yl)quinazolin-7-yl)naphthalen-2-ol] as the compound, how does the IC50 (KRAS G12C) read?
Answer: 0.1 to 1 µM

Question: What about the IC50 ([1]; Homo sapiens, MIA PaCa-2) of the same compound?
Answer: 5 to 10 µM

Question: Which results are given for `C=Cc1ncc2n1CCN(c1nc(OC[C@@H]3CCCN3C)nc3c(F)c(-c4cc(O)cc5ccccc45)c(Cl)cc13)C2` [Example 17, 4-(6-chloro-8-fluoro-2-(((S)-1-methylpyrrolidin-2-yl)methoxy)-4-(3-vinyl-5,6-dihydroimidazo[1,5-a]pyrazin-7(8H)-yl)quinazolin-7-yl)naphthalen-2-ol]?
Answer: IC50 (KRAS G12C): 0.1 to 1 µM; IC50 ([1]; Homo sapiens, MIA PaCa-2): 1 to 5 µM

Question: `C=Cc1ncc2n1CCN(c1nc(=O)n(C(C)C)c3nc(-c4c(O)cccc4F)c(F)cc13)C2` [Example 4] was tested. Which IC50 (KRAS G12C) did it give?
Answer: 0.1 to 1 µM

Question: And the IC50 ([1]; Homo sapiens, MIA PaCa-2)?
Answer: 5 to 10 µM

Question: For `C=Cc1ncc2n1CCN(c1nc(OCC3CCCN3C)nc3c(F)c(-c4cc(O)cc5ccccc45)c(Cl)cc13)C2` (racemic) [Example 11, 4-(6-chloro-8-fluoro-2-((1-methylpyrrolidin-2-yl)methoxy)-4-(3-vinyl-5,6-dihydroimidazo[1,5-a]pyrazin-7(8H)-yl)quinazolin-7-yl)naphthalen-2-ol], which IC50 (KRAS G12C) is on record?
Answer: ≤ 0.1 µM

Question: And the IC50 ([1]; Homo sapiens, MIA PaCa-2)?
Answer: 1 to 5 µM

Question: `C=Cc1ncc2n1CCN(c1nc(OCC3CCCN3C)nc3c(F)c(-c4c(C)ccc5[nH]ncc45)c(Cl)cc13)C2` (racemic) [Example 13, 6-chloro-8-fluoro-7-(5-methyl-1H-indazol-4-yl)-2-((1-methylpyrrolidin-2-yl)methoxy)-4-(3-vinyl-5,6-dihydroimidazo[1,5-a]pyrazin-7(8H)-yl)quinazoline] was tested. Which IC50 (KRAS G12C) did it give?
Answer: 0.1 to 1 µM

Question: What about the IC50 ([1]; Homo sapiens, MIA PaCa-2) of the same compound?
Answer: 5 to 10 µM

Question: For `C=Cc1ncc2n1CCN(c1nc(OC3CCN(C)CC3)nc3c(F)c(-c4cc(O)cc5ccccc45)c(Cl)cc13)C2` [Example 15, 4-(6-chloro-8-fluoro-2-((1-methylpiperidin-4-yl)oxy)-4-(3-vinyl-5,6-dihydroimidazo[1,5-a]pyrazin-7(8H)-yl)quinazolin-7-yl)naphthalen-2-ol], which IC50 (KRAS G12C) is on record?
Answer: 0.1 to 1 µM

Question: What about the IC50 ([1]; Homo sapiens, MIA PaCa-2) of the same compound?
Answer: 5 to 10 µM

Question: How did the IC50 (KRAS G12C) turn out when `C=Cc1nc(CN(C)CC#N)c2n1CCN(c1nc(=O)n(-c3c(C)ccnc3C(C)C)c3nc(-c4c(O)cccc4F)c(F)cc13)C2` [Example 10] was run?
Answer: 1 to 5 µM

Question: With `C=Cc1ncc2n1CCN(c1nc(OCC3CCCN3C)nc3c(F)c(-c4c(O)cccc4F)c(Cl)cc13)C2` (racemic) [Example 12, 2-(6-chloro-8-fluoro-2-((1-methylpyrrolidin-2-yl)methoxy)-4-(3-vinyl-5,6-dihydroimidazo[1,5-a]pyrazin-7(8H)-yl)quinazolin-7-yl)-3-fluorophenol] as the compound, how does the IC50 (KRAS G12C) read?
Answer: 0.1 to 1 µM

Question: What about the IC50 ([1]; Homo sapiens, MIA PaCa-2) of the same compound?
Answer: 5 to 10 µM

Question: For `C=Cc1ncc2n1CCN(c1nc(=O)n(CC3CC3)c3nc(-c4c(O)cccc4F)c(F)cc13)C2` [Example 3], which IC50 (KRAS G12C) is on record?
Answer: 0.1 to 1 µM

Question: What about the IC50 ([1]; Homo sapiens, MIA PaCa-2) of the same compound?
Answer: 5 to 10 µM

Question: Which results are given for `C=Cc1ncc2n1CCN(c1nc(N3CC(N(C)C)C3)nc3c(F)c(-c4cc(O)cc5ccccc45)c(Cl)cc13)C2` [Example 19, 4-(6-chloro-2-(3-(dimethylamino)azetidin-1-yl)-8-fluoro-4-(3-vinyl-5,6-dihydroimidazo[1,5-a]pyrazin-7(8H)-yl)quinazolin-7-yl)naphthalen-2-ol]?
Answer: IC50 (KRAS G12C): 0.1 to 1 µM; IC50 ([1]; Homo sapiens, MIA PaCa-2): 1 to 5 µM

Question: With “4-(1-cyclopropyl-3-vinyl-5,6-dihydroimidazo[1,5-a]pyrazin-7(8H)-yl)-7-(2-fluoro-6-hydroxyl)henyl)-1-(2-isopropyl-4-methylpyridin-3-yl)quinazolin-2(1H)-one [Example 8]” as the compound, how does the IC50 (KRAS G12C) read?
Answer: 0.1 to 1 µM

Question: For `Cc1ccnc(C(C)C)c1-n1c(=O)nc(N2CCn3c(cnc3/C=C/c3ccc(F)cc3F)C2)c2cc(F)c(-c3c(O)cccc3F)nc21` [Example 7], which IC50 (KRAS G12C) is on record?
Answer: 1 to 5 µM

Question: Which IC50 (KRAS G12C) does the source give for `C=Cc1ncc2n1CCN(c1nc(=O)n(-c3c(C)ccnc3C(C)C)c3nc(-c4c(O)cccc4F)c(F)cc13)C2` (single isomer, unassigned) [Example 1] here?
Answer: 0.1 to 1 µM

Question: And the IC50 ([1]; Homo sapiens, MIA PaCa-2)?
Answer: 5 to 10 µM

Question: How did the IC50 (KRAS G12C) turn out when `Cc1ccnc(C(C)C)c1-n1c(=O)nc(N2CCn3c(cnc3/C=C/c3cc(F)cc(F)c3)C2)c2cc(F)c(-c3c(O)cccc3F)nc21` [Example 6] was run?
Answer: 1 to 5 µM
